The values below come from US5250548A, “Angiotensin II receptor antagonists” (Abbott Laboratories, priority 1992, dated 1993).

For one assay, the target named is T1, angiotensin II receptor (Oryctolagus cuniculus, UniProt P34976).
T1 construct: Main abdominal aortas were removed and placed in Krebs-Henseleit buffer; from tissue; host or cells: main abdominal aorta rings (3 mm) of female New Zealand White rabbits
T1 sequence (P34976 1-359): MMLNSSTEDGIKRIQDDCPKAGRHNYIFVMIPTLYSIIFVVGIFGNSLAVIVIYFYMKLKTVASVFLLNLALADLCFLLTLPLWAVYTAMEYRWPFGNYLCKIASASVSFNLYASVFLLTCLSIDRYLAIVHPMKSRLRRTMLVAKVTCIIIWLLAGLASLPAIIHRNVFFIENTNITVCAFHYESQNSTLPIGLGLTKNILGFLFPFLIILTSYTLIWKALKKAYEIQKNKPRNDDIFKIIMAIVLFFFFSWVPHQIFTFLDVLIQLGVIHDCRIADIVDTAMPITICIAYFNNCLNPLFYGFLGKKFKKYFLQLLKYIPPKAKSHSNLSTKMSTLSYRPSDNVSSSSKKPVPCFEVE
In words: Angiotensin II functional assay: antagonism of contraction of rabbit aorta (isolated tissue, Schild analysis). To be noted: antagonist incubated 30 minutes, negative logarithm of antagonist concentration that requires doubling of the angiotensin II concentration; for Kb: read-out: pA2 (converted). Also on record: species or system rabbit (female New Zealand White). On the procedure: Antagonism of Contraction of Rabbit Aorta The protocol reported by A. T Chiu and […]. Wong, et al. Hypertension, 13, 489-497 (1989)) was followed with a few modifications. Female New Zealand White rabbits weighing 2-5 kg were sedated with carbon dioxide and then sacrificed. Main abdominal aortas were removed and placed in Krebs-Henseleit buffer at room temperature. The tissues were cleaned of extraneous connective tissue, cut into 3 mm rings, and suspended within a 10 mL tissue bath. All dilutions of peptide preparations were made with 0.3% aqueous BSA. The tissues were primed with 55 mM potassium chloride. Tissues were pre-loaded with 1 g of tension. Tension was recorded on a model 7 Grass polygraph using FT03 transducers. At the end of the equilibrium period, a control cumulative concentration-contractile response curve for angiotensin II (A II: 1×10^-10 -10^-8 M) was obtained. The tissue was washed several times until the baseline was reached. Forty five minutes later, test compound (antagonist) was added and the tissue was incubated for 30 minutes. The concentration-response curve for A II was then repeated in the presence of the test compound. One dose of antagonist was tested per tissue only. […] All responses to the control agonist were calculated as a percentage of the maximum response.

Assay [1] deals with hypertension and congestive heart failure. To be noted: cited from earlier work.

Structures can show the parent of a compound that is named as a salt.

`CCCN(Cc1ccc(-c2ccccc2-c2nn[nH]n2)cc1)c1ncccc1NS(=O)(=O)C(F)(F)F` [Example 147, 3-Trifluoromethanesulfonamido-2-{N-propyl-N-[(2'-[1H-tetrazol-5-yl]biphenyl-4-yl)methyl]amino}pyridine]: the Kb at angiotensin II receptor is 0.631 nM.

For the molecule `CCCCN(Cc1ccc(-c2ccccc2-c2nn[nH]n2)cc1)c1nccnc1C(=O)O` [Example 157, 3-{N-Butyl-N-[(2'-[1H-tetrazol-5-yl]biphenyl-4-yl)methyl]amino}pyrazine-2-carboxylic acid], the Kb on angiotensin II receptor is 0.135 nM. `CCCN(Cc1ccc(-c2ccccc2-c2nnn[nH]2)cc1)c1ncccc1C(=O)C(F)(F)C(=O)OCC` [Example 137, 3-[2,2-Difluoro-2-(ethoxycarbonyl)acetyl]-2-{N-propyl-N-[(2'-[1H-tetrazol-5-yl]biphenyl-4-yl]methyl]amino}pyridine]: the Kb at angiotensin II receptor is 4.57 nM. For the molecule `CCCN(Cc1ccc(-c2ccccc2-c2nn[nH]n2)cc1)c1ncccc1C(O)C(F)(F)C(=O)OCC` (stereo not shown) [Example 135, 3-(2.2-Difluoro-2-ethoxycarbonyl-1-hydroxyethyl)-2-{N-propyl-N-[(2'-[1H-tetrazol-5-yl]biphenyl-4-yl)methyl]amino}pyridine], the Kb on angiotensin II receptor was 3.39 nM. On to `CCCN(Cc1ccc(-c2ccccc2-c2nn[nH]n2)cc1)c1ncc(F)cc1C(=O)O` [Example 180, 5-Fluoro-2-{N-propyl-N-[(2'-[1H-tetrazol-5-yl]biphenyl-4-yl)methyl]amino}pyridine-3-carboxylic acid], for which, at angiotensin II receptor, the Kb was 0.912 nM. In the case of `CCCN(Cc1ccc(-c2ccccc2-c2nn[nH]n2)cc1)c1ncncc1C(=O)O` [Example 71, 4-{N-Propyl-N-[(2'-[1H-tetrazol-5yl]biphenyl-4-yl)methyl]amino}pyrimidine-5-carboxylic acid hydrochloride], at angiotensin II receptor, the Kb is 0.209 nM. The same measure, in the same setting: to `CCCCN(Cc1ccc(-c2ccccc2-c2nn[nH]n2)cc1)c1ncc(C(=O)O)cn1` [Example 167, 2-{N-Butyl-N-[(2'-[1H-tetrazol-5-yl]biphenyl-4-yl)methyl]amino}pyrimidine-5-carboxylic acid] belongs 3.31 nM. On to `CCOC(=O)[C@H](CCc1ccccc1)N[C@@H](C)C(=O)N1CCC[C@H]1C(=O)O` [enalapril], for which the clinical efficacy entry in assay [1] was “clinical efficacy in treating hypertension and congestive heart failure”. Take `CCCCN(Cc1ccc(-c2ccccc2-c2nn[nH]n2)cc1)c1nnccc1C(=O)O` [Example 169, 3-{N-Butyl-N-[(2'-[1H-tetrazol-5-yl]biphenyl-4-yl)methyl]amino}pyridazine-4-carboxylic acid]: on angiotensin II receptor, the Kb was 0.0891 nM. Same read-out and setting: to `CCCCN(Cc1ccc(-c2ccccc2-c2nnn[nH]2)cc1)c1nc(OC)ccc1C(=O)O` [Example 163, 2-{N-Butyl-N-[(2' -[1H-tetrazol-5-yl]biphenyl-4-yl)methyl]amino}-6-methoxypyridine-3-carboxylic acid] belongs 0.309 nM; to `CCCCN(Cc1ccc(-c2ccccc2-c2nnn[nH]2)cc1)c1ncncc1C(=O)O` [Example 53, 4-{N-butyl-N-[(2'-[1H-tetrazol-5-yl]biphenyl-4-yl)methyl]amino}pyrimidine-5-carboxylic acid hydrochloride], 0.126 nM. Consider `CCCN(Cc1ccc(-c2ccccc2-c2nn[nH]n2)cc1)c1nccc(C)c1C(=O)O` [Example 194, 4-Methyl-2-{N-propyl-N-[(2'-[1H-tetrazol-5-yl]biphenyl-4-yl)methyl]amino}pyridine-3-carboxylic acid], for which, on angiotensin II receptor, the Kb was 0.229 nM. As to `O=C(O)c1cccnc1N(Cc1ccc(-c2ccccc2-c2nn[nH]n2)cc1)CC1CC1` [Example 206, 2-{N-Cyclopropylmethyl-N-[ (2'-[1H-tetrazol-5-yl]biphenyl-4-yl)methyl]amino}pyridine-3-carboxylic acid], at angiotensin II receptor, the pA2 is on record as 8.93. Take `CCCCN(Cc1ccc(-c2ccccc2-c2nnn[nH]2)cc1)c1ncncc1C(=O)OCOC(=O)C(C)(C)C` [Example 82, Pivaloyloxymethyl 4-{N-butyl-N-[(2'-[1H-tetrazol-5-yl]biphenyl-4-yl)methyl]amino}pyrimidine-5-carboxylate]: on angiotensin II receptor, the Kb was 0.331 nM. `CCCCN(Cc1ccc(-c2ccccc2-c2nnn[nH]2)cc1)c1ncncc1C(=O)OC(C)OC(=O)C1CCN(C)CC1` (stereo not shown) [Example 121, 1-(1-Methylpiperidin-4-ylcarbonyloxy)ethyl 4-{N-butyl-N-[(2'-[1H-tetrazol-5-yl]biphenyl-4-yl)methyl]amino}pyrimidine-5-carboxylate]: the Kb on angiotensin II receptor was 0.257 nM.

For the molecule `CCCN(Cc1ccc(-c2ccccc2-c2nn[nH]n2)cc1)c1ncccc1C(O)CC(=O)O` (stereo not shown) [Example 140, 3-(2-Carboxy-1-hydroxyethyl)-2-{N-propyl-N-[(2'-[1H-tetrazol-5-yl]biphenyl-4-yl)methyl]amino}pyridine], the Kb at angiotensin II receptor is 1.45 nM. `CCCCN(Cc1ccc(-c2ccccc2-c2nn[nH]n2)cc1)c1ncccc1C(=O)O` [Example 229, 2-{N-Butyl-N-[(2'-[1H-tetrazol-5-yl]biphenyl-4-yl)methyl]amino}pyridine-3-carboxylic acid]: on angiotensin II receptor, the Kb is 0.339 nM. Take `CCCN(Cc1ccc(-c2ccccc2-c2nn[nH]n2)cc1)c1nnccc1C(=O)O` [Example 172, 3-{N-Propyl-N-[(2'-[1H-tetrazol-5-yl]biphenyl-4-yl)methyl]amino}pyridazine-4-carboxylic acid]: the Kb on angiotensin II receptor is 0.214 nM. `CCCCN(Cc1ccc(-c2ccccc2-c2nn[nH]n2)cc1)c1nnc(Cl)cc1C(=O)O` [Example 168, 6-{N-Butyl-N-[(2'-[1H-tetrazol-5-yl]biphenyl-4-yl)methyl]amino}-3-chloropyridazine-5-carboxylic acid]: on angiotensin II receptor, the Kb was 0.851 nM.

With `CCCN(Cc1ccc(-c2ccccc2-c2nn[nH]n2)cc1)c1ncccc1C(=O)NS(=O)(=O)c1ccccc1` [Example 203, 2-{N-Propyl-N-[(2'-[1H-tetrazol-5-yl]biphenyl-4-yl)methyl]amino}pyridine-3-(N-benzenesulfonyl)carboxamide], the Kb on angiotensin II receptor was 2.24 nM. On the same count and under the same terms, to `CCCN(Cc1ccc(-c2ccccc2-c2nn[nH]n2)cc1)c1nc(F)ccc1C(=O)O` [Example 160, 2-{N-Propyl-N-[(2'-[1H-tetrazol-5-yl]biphenyl-4-yl)methyl]amino}-6-fluoropyridine-3-carboxylic acid] belongs 0.234 nM; to `CCCCN(Cc1ccc(-c2ccccc2-c2nnn[nH]2)cc1)c1nc(F)ccc1C(=O)O` [Example 162, 2-{N-Butyl-N-[(2'-[1H-tetrazol-5-yl]biphenyl-4-yl)methyl]amino}-6-fluoropyridine-3-carboxylic acid], 0.309 nM. In the case of `O=C(O)c1cccnc1NCc1ccc(-c2ccccc2-c2nn[nH]n2)cc1` [Example 226], on angiotensin II receptor, the Kb was 1.29 nM.

At angiotensin II receptor, `CCCN(Cc1ccc(-c2ccccc2-c2nnn[nH]2)cc1)c1nc(C)ncc1C(=O)O` [Example 99, 2-Methyl-4-{N-propyl-N-[(2'-[1H-tetrazol-5-yl]biphenyl-4-yl)methyl]amino}pyrimidine-5-carboxylic acid] returned a pA2 of 9.60. As to `CCCN(Cc1ccc(-c2ccccc2-c2nn[nH]n2)cc1)c1nc(C(F)(F)F)ncc1C(=O)O` [Example 114, 2-Trifluoromethyl-4-{N-propyl-N-[(2'-[1H-tetrazol-5-yl]biphenyl-4-yl)methyl]amino}pyrimidine-5-carboxylic acid], the Kb on angiotensin II receptor is 1.62 nM.

In general, pA2 refers to the negative logarithm of the molar antagonist concentration that doubles the agonist concentration needed for the same response.
